ChEMBL document CHEMBL4190285, “Borapetoside E, a Clerodane Diterpenoid Extracted from Tinospora crispa, Improves Hyperglycemia and Hyperlipidemia in High-Fat-Diet-Induced Type 2 Diabetes Mice” (J Nat Prod, 2017)
Activity calls are given as the source filed them. The calls are words filed in the database; no cut-off is given here.

What was measured:
Mus musculus [1] = assay: Antihyperlipidemic activity in high fat diet-induced obese C57BL/6J mouse assessed as serum triglyceride levels at 200 mg/kg, ip administered twice daily for 2.5 days measured at 2 hrs post last dose (reference value: 1.31 +/- 0.48 mmol/L); type: functional
Mus musculus [2] = assay: Antihyperglycemic activity in high fat diet-induced obese C57BL/6J mouse assessed as reduction in blood glucose level at 200 mg/kg, ig administered twice daily for 2.5 days measured up to 5 days post last dose; type: functional, organism-based
Mus musculus [3] = assay: Antihyperlipidemic activity in high fat diet-induced obese C57BL/6J mouse assessed as serum LDL-C levels at 200 mg/kg, ip administered twice daily for 2.5 days measured at 2 hrs post last dose (reference value: 2.54 +/- 0.87 mmol/L); type: functional
Mus musculus [4] = assay: Antihyperlipidemic activity in high fat diet-induced obese C57BL/6J mouse assessed as serum HDL-C levels at 200 mg/kg, ip administered twice daily for 2.5 days measured at 2 hrs post last dose (reference value: 1.82 +/- 0.58 mmol/L); type: functional
Mus musculus [5] = assay: Antihyperlipidemic activity in high fat diet-induced obese C57BL/6J mouse assessed as serum free fatty acid levels at 200 mg/kg, ip administered twice daily for 2.5 days measured at 2 hrs post last dose (reference value: 1.41 +/- 0.3 mmol/L); type: functional
Mus musculus [6] = assay: Antihyperlipidemic activity in high fat diet-induced obese C57BL/6J mouse assessed as serum total cholesterol levels at 200 mg/kg, ip administered twice daily for 2.5 days measured at 2 hrs post last dose (reference value: 4.56 +/- 1.01 mmol/L); type: functional
Mus musculus [7] = assay: Antihyperglycemic activity in high fat diet-induced obese C57BL/6J mouse assessed as reduction in blood glucose level at 200 mg/kg, ig administered as single dose; type: functional, organism-based

SMILES: CN(C)C(=N)NC(=N)N [METFORMIN]
- Activity (Mus musculus [1]): 0.97 mmol/L
- Activity (Mus musculus [2]): Active
- Activity (Mus musculus [3]): 2.93 mmol/L
- Activity (Mus musculus [4]): 2.14 mmol/L
- Activity (Mus musculus [5]): 1.18 mmol/L
- Activity (Mus musculus [6]): 4.47 mmol/L
- Activity (Mus musculus [7]): Active
